Structures can show the parent of a compound that is named as a salt.
The molecules below were run on HCT116 cells (assay: Effects on HCT116 colorectal cancer cell viability (cell titre blue, 72 hours)). Conditions: Homo sapiens, HCT-116, HCT116 cell line.
Assay type: cell-based
Experimental: Assay to Measure the Effects of Compounds of the Invention on HCT116 Colorectal Cancer Cell Viability
The following protocol was used to measure the effects of compounds of the invention on HCT116 cell viability.
1. HCT116 cells were grown in RPM11640 media supplemented with Glutamax and 10% FBS in a 37° C./5% CO2 incubator.
2. Growing culture of HCT116 cells were trypsinised, counted and diluted to give 10,000 cells/mL in an appropriate volume, allowing at least 6 mL of cells per plate.
3. 200 μL of PBS were added to all the outer wells of a flat-bottomed (8×12) 96-well TC plate. 100 μL of media were added only to wells in column 11 of the plates (these wells provided a blank for the cell titre blue assay). Two compounds were assayed on each plate.
4. 100 ul of 10,000 cells/mL HCT116s were plated in rows B-G of each plate.
5. The cells were incubated (37° C. 5% CO2) for 24 hours before treating with compounds.
6. An 8 mM compound stock in DMSO was prepared for all compounds to be tested. 2.5 μL of the compound stock was added to 1000 μL growth medium in a 96-well deep well block and serial dilutions were prepared across the plate by transferring 500 μL into wells containing 500 μL growth medium+0.25% DMSO to give eight concentrations of compound (this ensured a constant amount of DMSO at all concentrations of compound). When making up growth medium+DMSO, an amount of 5 ml was allowed per compound to be diluted.
7. 3 rows of cells were treated with 100 μL/well from each row on the dilution plate so that each cell plate is treated with a single compound. This gave a final volume in all wells of 200 μL and a titration of compound from a final concentration of 10 uM down to 78 nM.
8. The cells were incubated (37° C. 5% CO2) for 72 hours.
9. 5 ul cell titre blue reagent (Promega) were added to all wells except the edge wells (which contain PBS only) and incubated (37° C. 5% CO2) for 2.5-3 hours.
10. Fluorescence was measured on a suitable plate reader using a 530-570 nm filter set for excitation and a 580-620 nm filter set for fluorescence emission.
11. Data were analysed using an appropriate graphing package (such as GraphPad Prism). Data were expressed as the concentration of compound causing a 50% inhibition of cell viability or GI50.
For CN(C)CCNC(=O)c1cccc(-c2ccc(-c3ccc(F)cc3)n2-c2ccccc2C(F)(F)F)c1 [Example 5, hydrochloride], the GI50 was 560 nM. CN(C)CCNC(=O)c1cccc(-c2ccc(-c3ccc(Oc4ccccc4)cc3)n2-c2ccc(F)cc2)c1 [Example 8, hydrochloride] gave a GI50 of 1850 nM. CN(C)CCCNc1cccc(-c2ccc(-c3ccc(Br)cc3)n2-c2ccccc2C(F)(F)F)c1 [Example 16, N-[3-[5-(4-Bromophenyl)-1-[2-(trifluoromethyl)phenyl]pyrrol-2-yl]phenyl]-N′,N′-dimethyl-propane-1,3-diamine Hydrochloride] was tested, and the GI50 was 2720 nM. For CN(C)CCNC(=O)c1ccc(Cl)c(-c2ccc(-c3ccc(Br)cc3)n2-c2ccccc2)c1 [Example 19, hydrochloride], the GI50 was 4210 nM. With COc1ccc(C(=O)NCCN(C)C)cc1-c1ccc(-c2ccc(Br)cc2)n1-c1ccccc1 [Example 20, hydrochloride] the GI50 was 3940 nM. CN(C)CC(=O)NCc1cccc(-c2ccc(-c3ccc(Br)cc3)n2-c2ccccc2C(F)(F)F)c1 [Example 21, N-[[3-[5-(4-Bromophenyl)-1-[2-(trifluoromethyl)phenyl]pyrrol-2-yl]phenyl]methyl]-2-(dimethylamino)acetamide Hydrochloride] gave a GI50 of 1060 nM. Work on O=C(O)c1ccc(-c2ccc(-c3ccc(Br)cc3)n2-c2ccccc2C(F)(F)F)cc1 [Example 27, 4-[5-(4-bromophenyl)-1-[2-(trifluoromethyl)phenyl]pyrrol-2-yl]benzoic acid] yielded a GI50 of 4740 nM. With CN(C)CCNC(=O)c1ccc(-c2ccc(-c3ccc(Br)cc3)n2-c2ccccc2C(F)(F)F)nc1 [Example 29, 6-[5-(4-Bromophenyl)-1-[2-(trifluoromethyl)phenyl]pyrrol-2-yl]-N-[2-(dimethylamino)ethyl]pyridine-3-carboxamide Hydrochloride] the GI50 was 60 nM. O=C(O)c1ccc(-c2ccc(-c3ccc(Br)cc3)n2-c2ccccc2C(F)(F)F)nc1 [Example 30, 6-[5-(4-bromophenyl)-1-[2-(trifluoromethyl)phenyl]pyrrol-2-yl]pyridine-3-carboxylic acid] showed a GI50 of 8440 nM. Work on COc1cc(-c2ccc(-c3ccc(Br)cc3)n2-c2ccccc2C(F)(F)F)ccc1C(=O)NCCCN(C)C [Example 31, hydrochloride] yielded a GI50 of 1450 nM. With COc1cc(C(=O)NCCN(C)C)ccc1-c1ccc(-c2ccc(Br)cc2)n1-c1ccccc1C(F)(F)F [Example 32, hydrochloride] the GI50 was 60 nM. Molecule CN(C)CCNC(=O)c1ccc(-c2ccc(-c3ccc(Br)cc3)n2-c2ccccc2C(F)(F)F)cc1Cl [Example 38] has a GI50 of 190 nM. CN(C)CCNC(=O)c1ccc(-c2ccc(-c3ccccc3)n2-c2ccccc2C(F)(F)F)cc1Cl [Example 39, hydrochloride] gave a GI50 of 350 nM. Work on CN(C)CCNC(=O)c1ccc(-c2ccc(-c3ccc(Br)cc3)n2-c2ccccc2CN(C)C)cc1 [Example 40, hydrochloride] yielded a GI50 of 1030 nM. With CN(C)CCNC(=O)c1ccc(-c2ccc(-c3ccc(F)cc3F)n2-c2ccccc2C(F)(F)F)cc1 [Example 43] the GI50 was 200 nM. Molecule CN(C)CCNS(=O)(=O)c1ccc(-c2ccc(-c3ccc(Br)cc3)n2-c2ccccc2C(F)(F)F)cc1 [Example 44, 4-[5-(4-Bromophenyl)-1-[2-(trifluoromethyl)phenyl]pyrrol-2-yl]-N-[2-(dimethylamino)ethyl]benzenesulfonamide Hydrochloride] has a GI50 of 510 nM. Molecule CN(C)CCOCc1ccc(-c2ccc(-c3ccc(Br)cc3)n2-c2ccccc2C(F)(F)F)cc1 [Example 45, 2-[[4-[5-(4-Bromophenyl)-1-[2-(trifluoromethyl)phenyl]pyrrol-2-yl]phenyl]methoxy]-N,N-dimethyl-ethanamine Hydrochloride] has a GI50 of 350 nM. CN(C)CCC(=O)Nc1ccc(-c2ccc(-c3ccc(Br)cc3)n2-c2ccccc2C(F)(F)F)cc1 [Example 46, N-[4-[5-(4-Bromophenyl)-1-[2-(trifluoromethyl)phenyl]pyrrol-2-yl]phenyl]-3-(dimethylamino) propanamide Hydrochloride] showed a GI50 of 160 nM. O=C(O)Cc1ccc(-c2ccc(-c3ccc(Br)cc3)n2-c2ccccc2C(F)(F)F)cc1 [Example 47, 2-[4-[5-(4-Bromophenyl)-1-[2-(trifluoromethyl)phenyl]pyrrol-2-yl]phenyl]acetic Acid] was tested, and the GI50 was 1380 nM. In the case of CN1CCN(Cc2ccc(-c3ccc(-c4ccc(Br)cc4)n3-c3ccccc3C(F)(F)F)cc2)CC1 [Example 48, hydrochloride], the GI50 is reported as 410 nM. CN(C)CCNC(=O)c1ccc(-c2ccc(-c3ccc(Cl)cc3)n2-c2cnccc2C(F)(F)F)cc1 [Example 49, hydrochloride] showed a GI50 of 50 nM. For COCc1ccccc1-n1c(-c2ccc(Br)cc2)ccc1-c1ccc(C(=O)NCCN(C)C)cc1 [Example 50], the GI50 was 2180 nM. CN(C)CCCNC(=O)c1ccc(-c2ccc(-c3ccc(Cl)cc3)n2-c2cnccc2C(F)(F)F)cc1 [Example 51, hydrochloride] was tested, and the GI50 was 100 nM. Molecule COc1ccc(C(=O)NCCN(C)C)cc1-c1ccc(-c2ccc(Br)cc2)n1-c1ccccc1C(F)(F)F [Example 52, hydrochloride] has a GI50 of 350 nM. Molecule CN(C)[C@@H]1CCN(C(=O)c2cccc(-c3ccc(-c4ccc(Br)cc4)n3-c3ccccc3C(F)(F)F)c2)C1 [Example 54, hydrochloride] has a GI50 of 1380 nM. With CN(C)[C@H]1CCN(C(=O)c2cccc(-c3ccc(-c4ccc(Br)cc4)n3-c3ccccc3C(F)(F)F)c2)C1 [Example 55, hydrochloride] the GI50 was 2250 nM. CC(C)Cc1ccc(C(F)(F)F)c(-n2c(-c3ccc(Cl)cc3)ccc2-c2ccc(C(=O)NCCN(C)C)cc2)c1 [Example 63, hydrochloride] was tested, and the GI50 was 1640 nM. CC(C)Cc1ccc(C(F)(F)F)c(-n2c(-c3ccc(Cl)cc3)ccc2-c2ccc(C(=O)NCCCN(C)C)cc2)c1 [Example 64, hydrochloride] showed a GI50 of 1700 nM. Work on NS(=O)(=O)c1ccc(-c2ccc(-c3ccc(Br)cc3)n2-c2ccccc2C(F)(F)F)cc1 [Example 65, 4-[5-(4-bromophenyl)-1-[2-(trifluoromethyl)phenyl]pyrrol-2-yl]benzenesulfonamide] yielded a GI50 of 1960 nM. Molecule CN(C)CCNC(=O)c1ccc(-c2ccc(-c3ccc(C#N)nc3)n2-c2ccccc2C(F)(F)F)cc1 [Example 66, hydrochloride] has a GI50 of 890 nM. Molecule CN(C)CCNC(=O)c1ccc(-c2ccc(-c3ccccc3)n2-c2cnccc2C(F)(F)F)c(Cl)c1 [Example 67, hydrochloride] has a GI50 of 70 nM. Work on CN(C)CCCNC(=O)c1ccc(-c2ccc(-c3ccccc3)n2-c2cnccc2C(F)(F)F)c(Cl)c1 [Example 68, hydrochloride] yielded a GI50 of 110 nM. CN(C)CCNC(=O)c1ccc(-c2ccc(-c3cccc(Cl)c3)n2-c2ccccc2C(F)(F)F)cc1 [Example 72, hydrochloride] showed a GI50 of 1730 nM. For COc1cc(C(=O)NCCN(C)C)ccc1-c1ccc(-c2ccc(Cl)cc2)n1-c1cnccc1C(F)(F)F [Example 73, hydrochloride], the GI50 was 90 nM. COc1cc(C(=O)NCCCN(C)C)ccc1-c1ccc(-c2ccc(Cl)cc2)n1-c1cnccc1C(F)(F)F [Example 74, hydrochloride] showed a GI50 of 130 nM. CN(C)CCNC(=O)c1ccc(-c2ccc(-c3ccc(Cl)cn3)n2-c2ccccc2C(F)(F)F)cc1 [Example 75, hydrochloride] gave a GI50 of 150 nM. Molecule CN(C)CCCNC(=O)c1ccc(-c2ccc(-c3ccc(Cl)cn3)n2-c2ccccc2C(F)(F)F)cc1 [Example 76, hydrochloride] has a GI50 of 240 nM. Molecule CN(C)CCNC(=O)c1ccc(-c2ccc(-c3ccc(Cl)cc3)n2-c2cccc(C(F)(F)F)c2)cc1 [Example 77, hydrochloride] has a GI50 of 3630 nM. For CN(C)CCCNC(=O)c1ccc(-c2ccc(-c3ccc(Cl)cc3)n2-c2cccc(C(F)(F)F)c2)cc1 [Example 78, hydrochloride], the GI50 was 2130 nM. Molecule CN(C)CCNC(=O)c1ccc(-c2ccc(-c3ccc(Cl)cc3)n2-c2ncccc2C(F)(F)F)cc1 [Example 79, hydrochloride] has a GI50 of 3830 nM. Molecule CN(C)CCCNC(=O)c1ccc(-c2ccc(-c3ccc(Cl)cc3)n2-c2ncccc2C(F)(F)F)cc1 [Example 80, hydrochloride] has a GI50 of 3920 nM. With O=C(NCCN1CCOCC1)c1ccc(-c2ccc(-c3ccc(Cl)cc3)n2-c2cnccc2C(F)(F)F)cc1 [Example 81, hydrochloride] the GI50 was 80 nM. Molecule CN(C)CCN(C)C(=O)c1ccc(-c2ccc(-c3ccc(Cl)cc3)n2-c2ccccc2C(F)(F)F)cc1 [Example 83, hydrochloride] has a GI50 of 60 nM. Work on O=C(c1ccc(-c2ccc(-c3ccc(Cl)cc3)n2-c2ccccc2C(F)(F)F)cc1)N1CCNCC1 [Example 84, hydrochloride] yielded a GI50 of 190 nM. For CN1CCN(C(=O)c2ccc(-c3ccc(-c4ccc(Cl)cc4)n3-c3ccccc3C(F)(F)F)cc2)CC1 [Example 85, hydrochloride], the GI50 was 490 nM.

Source: US11208405B2, “Pyrrole derivatives as PLK1 inhibitors” (SENTINEL ONCOLOGY LIMITED, priority 2017, dated 2021)
